Laboratory results as given in patent US10640515B2, “Hepatitis C virus inhibitor and uses thereof” (priority 2016, dated 2020).
pEC50: −log10 of the molar value.

Columns and labels:
[1] = in the rats, reported in a literature; cited from earlier work
[2] = tested on: HCV 1b-genotype replicon Con1b; test: HCV replicon luciferase assay, HCV-1b replicon (Huh7-Con1b, firefly luciferase); format: cell-based; conditions: Hepatitis C virus, Huh7-Con1b cells, 72 hours
Text: (§1) In brief, three stably-transfected cell lines containing different HCV genotypes of replicons were used to test activity of the compounds in inhibiting the HCV replication.
(§2) A Huh7-Con1b cell line contained an HCV 1b-genotype replicon Con1b and a reporter gene of firefly luciferase. An Huh7-H77 and an Huh7-JFH1 cell line both contained a reporter gene of renilla luciferase and respectively contained an HCV 1a-genetype replicon H77 and an HCV 2a-genetype replicon JFH1. The replication level of HCV in host cells can be characterized by the expression of the firefly luciferase gene or the renilla luciferase gene. The effect of the compounds described herein on the HCV replication can be evaluated through a chemiluminescence detection of the expression of the above two luciferase genes. Meanwhile, the CC50 value of each Huh7 cell line was measured using a CellTiter GLO kit to evaluate the toxicity of the compounds.
(§3) The compounds described herein were subjected to three-fold serial dilutions using a Bravo liquid treatment system to obtain a total of 11 concentration points prior to cell plating. The prepared compounds were added to cell culture plates using an Echo 550 system. The Huh7-H77 and the Huh7-JFH1 cells were inoculated into the 96-well plate added with the compounds at an amount of 10000 cells per well. The Huh7-Con1b and the Huh7 cells were inoculated into the 384-well plate added with the compounds at an amount of 5000 cells per well. The cell culture plates were incubated in a CO2 incubator (5%) at 37° C. for 72 hours.
The 384-well plate was taken out of the incubator and cooled at room temperature for 30 minutes. After removing the medium, each well was added with 50 μL of DPBS (Dulbecco's Phosphate Buffered Saline) and then added with 50 μL of a Britelit plus reagent (PerkinElmer Inc.). Then the 384-well plate was placed in a shaker at a shaking rate of 1000 rpm at room temperature for 1 minute. Finally, the 384-well plate was read using an Envision Plate Reader at a signal accumulation time of per well of 0.1 s.

[3] = tested on: HCV 1a-genetype replicon H77; test: HCV replicon luciferase assay, HCV-1a replicon (Huh7-H77, renilla luciferase); format: cell-based; conditions: Hepatitis C virus, Huh7-H77 cells, 72 hours
Text: (§4) The HCV replicon was first reported in Science. 1999 Jul. 2; 285 (5424), 110-3. The HCV replicon system has been one of the most important tools to investigate the RNA replication, pathogenicity and virus persistence of HCV. For example, the replicon has been successfully used to verify the 5′-NCR minimum region essential for HCV RNA replication, in addition, the HCV replicon system has been successfully used as an evaluation model for antiviral drugs.
as §1, §2, §3
(§5) The 96-well plate was taken out of the incubator and cooled at room temperature for 30 minutes. After removing the medium, each well was added with 30 μL of a diluted Promega lysate (diluted using pure water in a volume ratio of 1:4). The 96-well plate was placed in a shaker at a shaking rate of 1000 rpm at room temperature for 15 minutes. Each well was added with 100 μL of a diluted Premega luciferase reagent (Promega Inc.) (diluted using a substrate buffer in a volume ratio of 1:99) and then, the 96-well plate was immediately read using an Envision Plate Reader at a signal accumulation time of per well of 0.1 s.

[4] = tested on: HCV 2a-genetype replicon JFH1; test: HCV replicon luciferase assay, HCV-2a replicon (Huh7-JFH1, renilla luciferase); format: cell-based, hepatitis C virus (HCV); conditions: Huh7-JFH1 cells
Text: as §4, §1, §2, §3, §5

[5] = CC50 by CellTiter-GLO kit, HCV-1b replicon cell; format: cell-based; conditions: human
Text: as §2, §3
(§6) The CellTiter-GLO reagent was heated to room temperature. The 384-well plate plated with the Huh 7 cells was transferred from the incubator and cooled at room temperature for 20 minutes. Each well was added with 50 μL of the CellTiter-GLO reagent (Promega Inc.), and then the 384-well plate was shaken for 2 minutes. The 384-well plate was subsequently incubated in a dark environment at room temperature for 10 minutes. After the incubation, the 384-well plate was read using an Envision Plate Reader at a signal accumulation time of per well of 0.1 s.

[6] = CC50 by CellTiter-GLO kit, HCV-1a replicon cell; format: cell-based; conditions: human
Text: as §2, §3, §6

[7] = CC50 by CellTiter-GLO kit, HCV-2a replicon cell; format: cell-based; conditions: human
Text: as §2, §3, §6

Structure (SMILES) | bioavailability [1] [%] | pEC50 [2] | pEC50 [3] | pEC50 ([4]; Hepatitis C virus, 72 h) | CC50 at 72 h [5] [nM] | CC50 at 72 h [6] [nM] | CC50 at 72 h [7] [nM] | pEC50 ([4]; 72 hours)
COC(=O)N[C@H](C(=O)N1CCC[C@H]1C(=O)Nc1ccc([C@@H]2CC[C@@H](c3ccc(NC(=O)[C@@H]4CCCN4C(=O)[C@@H](NC(=O)OC)C(C)C)cc3)N2c2ccc(C(C)(C)C)cc2)cc1)C(C)C [ABT-267] | 100 |  |  |  |  |  |  | 
COC(=O)N[C@H](C(=O)N1CCC[C@H]1C(=O)Nc1ccc2c(c1)O[C@H](c1ccccc1)n1c-2cc2cc(NC(=O)[C@@H]3CCCN3C(=O)[C@@H](NC(=O)OC)C(C)C)ccc21)C(C)C [PA6001-A] |  | 11.09 | 8.53 | 10.26 | > 100 | > 100 | > 100 | 
COC(=O)N[C@H](C(=O)N1CCC[C@H]1C(=O)Nc1ccc2c(c1)O[C@@H](c1ccccc1)n1c-2cc2cc(NC(=O)[C@@H]3CCCN3C(=O)[C@@H](NC(=O)OC)C(C)C)ccc21)C(C)C [PA6001-B] |  | 11.17 | 10.23 | 10.20 | > 100 | > 100 | > 100 | 
COC(=O)N[C@H](C(=O)N1CCC[C@H]1C(=O)Nc1ccc2c(c1)OC(c1ccccc1)n1c-2cc2cc(NC(=O)[C@@H]3CCCN3C(=O)[C@@H](NC(=O)OC)C(C)C)ccc21)C(C)C (some centres unmarked) [PA6001] |  | 10.70 | 8.81 | 10.23 | > 100 | > 100 | > 100 | 
COC(=O)N[C@H](C(=O)N1CC2(CC2)C[C@H]1C(=O)Nc1ccc2c(c1)OC(c1ccccc1)n1c-2cc2cc(NC(=O)[C@@H]3CC4(CC4)CN3C(=O)[C@@H](NC(=O)OC)C(C)C)ccc21)C(C)C (some centres unmarked) [PA6002] |  | 11.30 | 10.52 | 9.83 | > 100 | > 100 | > 100 | 
COC(=O)N[C@H](C(=O)N1C[C@H](F)C[C@H]1C(=O)Nc1ccc2c(c1)OC(c1ccccc1)n1c-2cc2cc(NC(=O)[C@@H]3C[C@H](F)CN3C(=O)[C@@H](NC(=O)OC)C(C)C)ccc21)C(C)C (some centres unmarked) [PA6010] |  | 11.35 | 9.97 | 9.70 | > 100 | > 100 | > 100 | 
COC(=O)N[C@H](C(=O)N1CC(F)(F)C[C@H]1C(=O)Nc1ccc2c(c1)OC(c1ccccc1)n1c-2cc2cc(NC(=O)[C@@H]3CC(F)(F)CN3C(=O)[C@@H](NC(=O)OC)C(C)C)ccc21)C(C)C (some centres unmarked) [PA6011] |  | 11.93 | 10.32 | 9.51 | > 100 | > 100 | > 100 | 
COC(=O)N[C@H](C(=O)N1CCC[C@H]1C(=O)Nc1ccc2c(c1)O[C@@H](c1cc(F)cc(F)c1)n1c-2cc2cc(NC(=O)[C@@H]3CCCN3C(=O)[C@@H](NC(=O)OC)C(C)C)ccc21)C(C)C [PA6016-B] |  | 11.36 | 10.74 | 10.21 | > 100 | > 100 | > 100 | 
COC(=O)N[C@H](C(=O)N1CCC[C@H]1C(=O)Nc1ccc2c(c1)OC(c1cc(F)cc(F)c1)n1c-2cc2cc(NC(=O)[C@@H]3CCCN3C(=O)[C@@H](NC(=O)OC)C(C)C)ccc21)C(C)C (some centres unmarked) [PA6016] |  | 11.44 | 10.36 | 10.30 to 10.40 | > 100 | > 100 | > 100 | 10.30
COC(=O)N[C@H](C(=O)N1CC2(CC2)C[C@H]1C(=O)Nc1ccc2c(c1)OC(c1cc(F)cc(F)c1)n1c-2cc2cc(NC(=O)[C@@H]3CC4(CC4)CN3C(=O)[C@@H](NC(=O)OC)C(C)C)ccc21)C(C)C (some centres unmarked) [PA6017] |  | 11.63 | 10.57 | 9.13 | > 100 | > 100 | > 100 | 
COC(=O)N[C@H](C(=O)N1C[C@H](F)C[C@H]1C(=O)Nc1ccc2c(c1)OC(c1cc(F)cc(F)c1)n1c-2cc2cc(NC(=O)[C@@H]3C[C@H](F)CN3C(=O)[C@@H](NC(=O)OC)C(C)C)ccc21)C(C)C (some centres unmarked) [PA6018] |  | 11.53 | 10.45 | 9.99 | > 100 | > 100 | > 100 | 
COC(=O)N[C@H](C(=O)N1CC(F)(F)C[C@H]1C(=O)Nc1ccc2c(c1)OC(c1cc(F)cc(F)c1)n1c-2cc2cc(NC(=O)[C@@H]3CC(F)(F)CN3C(=O)[C@@H](NC(=O)OC)C(C)C)ccc21)C(C)C (some centres unmarked) [PA6019] |  |  | 10.27 | 9.63 | > 100 | > 100 | > 100 | 
COC(=O)N[C@H](C(=O)N1CCC[C@H]1C(=O)Nc1ccc2c(c1)O[C@@H](c1c(F)c(F)c(F)c(F)c1F)n1c-2cc2cc(NC(=O)[C@@H]3CCCN3C(=O)[C@@H](NC(=O)OC)C(C)C)ccc21)C(C)C [PA6030] |  | 11.50 | 10.12 | 9.68 | > 100 | > 100 | > 100 | 
COC(=O)N[C@H](C(=O)N1CCC[C@H]1C(=O)Nc1ccc2c(c1)O[C@@H](c1c(F)c(F)cc(F)c1F)n1c-2cc2cc(NC(=O)[C@@H]3CCCN3C(=O)[C@@H](NC(=O)OC)C(C)C)ccc21)C(C)C [PA6031] |  | 11.64 | 10.43 | 10.30 to 10.40 | > 100 | > 100 | > 100 | 10.40
COC(=O)N[C@H](C(=O)N1CCC[C@H]1C(=O)Nc1ccc2c(c1)O[C@@H](c1cc(F)c(F)c(F)c1)n1c-2cc2cc(NC(=O)[C@@H]3CCCN3C(=O)[C@@H](NC(=O)OC)C(C)C)ccc21)C(C)C [PA6032] |  | 11.52 | 10.77 | 9.83 | > 100 | > 100 | > 100 | 
